# Laboratory results published in US20090325202A1, “Methods for Developing and Assessing Therapeutic Agents” (priority 2006, published 2009).
# “And” between values parts separate entries of the source, which are not always exact repeats. Equal entries are not always repeated. “Also recorded” adds a separate entry of the source.
# Assays:
# [1] = tested on: ERK1/2; assay: HuCCT-1 xenograft tumor FNAB phospho-/total ERK1/2 ELISA; assay type: in vivo, human
# Description: (§1) Four to 6-week-old female athymic (nu+/nu+) mice were purchased from Harlan (Harlan Laboratories, Washington, D.C.). The research protocol was approved by the Johns Hopkins University Animal Care Committee and animals were maintained in accordance with the guidelines of the American Association of Laboratory Animal Care. […] Mice were monitored daily for signs of toxicity and were weighed three times per week. Tumor size was evaluated three times per week by caliper measurements using the following formula: tumor volume=[length×width^2]/2. Tumor growth inhibition was calculated by tumor volume of treated mice divided by tumor volume of control mice. Experiments were terminated on day 14.
# (§2) Total cell lysates were obtained from either cells cultured in vitro or from tumor FNAB samples. […] Immunoreactive proteins were visualized by enhanced chemiluminescence (Amersham International, United Kingdom). Total and phospho-ERK1/2 proteins were quantified by sandwich [LISA kits (BioSource International, Camarillo, Calif., USA) as described in the manufacturer's protocols. The reaction was read at 450 nm in an ELISA plate reader.
# Western blot analysis of protein samples is a conventional method for phosphoprotein analysis, but is limited in throughput, quantitative precision and requires large sample amounts. ELISA assays offer alternatives to Western blot with higher throughput and increased sensitivity. […] For this purpose the tumor FNAB samples, which have been analyzed on Western blot above (FIG. 16A), were used to assess the expression and phosphorylation of ERK1/2 proteins by the total and phospho-specific ERK1/2 ELISA assays, respectively.
# The amounts of phosphorylated ERK1/2 were normalized for the total contents of these proteins in each sample group and therapy-mediated changes in their phosphorylation status were quantified.
# [2] = tested on: ERK1/2; assay: HuCCT-1 xenograft tumor FNAB Western blot, ERK1/2 activity; assay type: in vivo, human
# Description: as §1
# Fine needle aspirates were obtained with a 25G needle and 10 ml syringe, passing the needle through the tumor 10 times with application of 1-2 ml suction The aspirated material was expressed onto clear glass slides and smeared. All smears were allowed to air dry and then stained with Diff-Quik stain (Baxter Healthcare, Miami, Fla.). Five to ten AD/DQ-stained cytological smears were prepared from each tumor sample. The cellular composition of each aspirate was assessed by cytopathologists.
# as §2
# Next, whether FNAB samples obtained from tumor tissue at the early stage of therapy can be used to predict tumor response was examined. […] Expression and phosphorylation levels of ERK 1/2 were analyzed on Western blot by using extracts prepared from AD/DQ-stained FNAB samples.
# [3] = tested on: HuCCT-1 tumors; assay: HuCCT-1 xenograft tumor growth; assay type: in vivo, athymic (nu+/nu+) mice; conditions: single agents: gefitinib 150 mg/Kg i.p. days 1-5 and 8-12, CI-1040 150 mg/Kg twice a day oral days 1-14
# Description: as §1
# To explore the feasibility of implementing this method in in vivo studies, mouse xenografts were next employed to test whether FNAB material obtained from tumor tissue can be utilized to monitor and predict therapy response in vivo. For this purpose HuCCT-1 cholangiocarcinoma cells were used to create a xenograft mouse model of human cholangiocarcinoma. […] Tumor volumes were measured and compared with tumors from animals that received drug vehicle alone.
# [4] = tested on: ERK1/2; assay: Phospho-/total ERK1/2 ELISA in EGF-stimulated T-47D cell smears; assay type: cell-based, human; conditions: T-47D cells, AG1478 0.5 uM, PD98059 20 uM
# Description: T47D cells were maintained in Dulbecco's modified Eagle's medium (Life Technologies, Inc.) supplemented with 10% fetal calf serum and antibiotics (Life Technologies, Inc.). Prior to EGF (Sigma) stimulation, cells were starved for 24 h in serum-free medium.
# Total cell lysates were obtained from either cells cultured in vitro or from tumor FNAB samples. Protein extracts were resolved by 4-15% SDS-PAGE and probed with Rabbit anti-EGFR, anti-phospbo-EGFR, anti-ERK1 and anti-phospho-ERK antibodies obtained from New England Biolabs (Beverly, Mass.). Immunoreactive proteins were visualized by enhanced chemiluminescence (Amersham International, United Kingdom). Total and phospho-ERK1/2 proteins were quantified by sandwich [LISA kits (BioSource International, Camarillo, Calif., USA) as described in the manufacturer's protocols. The reaction was read at 450 nm in an ELISA plate reader.
# Western blot analysis of protein samples is a conventional method for phosphoprotein analysis. However, Western blot analysis is limited in throughput and quantitative precision, and also requires large sample amounts. […] Therefore, it was tested if quantitative ELISA assays can be applied to cytologic samples to increase the assay sensitivity to measure the expression levels and activation status of specific signaling pathways. […]
# [5] = tested on: primary human pancreatic cancer xenograft tumors; assay: Tumor growth (RTG) in xenograft mouse models of primary human pancreatic cancer; assay type: in vivo, athymic (nu+/nu+) mice
# From the text: Four-week-old female athymic (nu+/nu+) mice were purchased from Harlan (Harlan Laboratories, Washington, D.C.). The research protocol was approved by the Johns Hopkins University Animal Care and Use Committee and animals were maintained in accordance to guidelines of the American Association of Laboratory Animal Care. Briefly, frozen pancreatic xenografts in first passage in mice, after being obtained from surgical specimens of patients undergoing pancreatic resection for adenocarcinoma at the Johns Hopkins Hospital were re-implanted subcutaneously in groups of 5 mice for each patient, with 2 small pieces per mouse (F2 generation). Tumors were allowed to grow to a size of 1.5 cm at which point they were harvested, divided into small ˜3×3×3 mm pieces, and transplanted to another 18-22 mice, with two tumors per mouse. Tumors from this second mouse-to-mouse passage were allowed to grow until reaching −200 mm^3, at which time mice were randomized in the following three treatment groups, with 6 mice in each group: control (vehicle), erlotinib (50 mg/kg/day i.p.), and temsirolimus (20 mg/kg days 1-5 i.p.). Mice were monitored daily for signs of toxicity and were weighed three times per week. Tumor size was evaluated three times per week by caliper measurements using the following formula: tumor volume=[length×width^2]/2 as previously reported (19). Relative tumor growth (RTG) was calculated by tumor growth of treated mice divided by tumor growth of control mice (T/C)×100. Experiments were terminated on day 28. Tumor response was defined as sensitive, when RTG was less than 50% on day 28.
# [6] = tested on: ERK1/2; assay: Ex vivo FNAB drug sensitivity assay, ERK1/2 phosphorylation by Western blot; assay type: cell-based, human
# Description: Tumor cells were collected by FNAB from the xenograft animals before the start of treatment using a sterile 25G short needle. Tumor samples were immediately transferred into 10 ml sterile prewarmed complete RPMI-1640 culture medium containing 10% FBS, penicillin (200 μg/ml), and streptomycin (200 μg/ml). Cells were incubated with 0.04% trypan blue (Sigma) dissolved in PBS (9.1 mM Na2HPO4, 1.7 mM NaH2PO4, and 150 mM NaCl, pH 7.4). The viable (membrane-intact) and dead cells were then counted using Neubauer hemocytometer and the total viable cell count was used to calculate final working volumes. Approximately 25,000 viable tumor cells were seeded into each well of a 6-well polypropylene microplate. Cells were treated in duplicates with vehicle (control), erlotinib (5 μM) or temsirolimus (1 μM) in a humidified 5% CO2 incubator at 37° C. for 6 hours. No fibroblast and endothelial cell growth was observed. Following treatment, non-adherent and adherent cells (only a few, collected by scraping) were pooled together and centrifuged at 500×g for 5 min at 4° C. After washing with PBS, cells were lysed in 100 μL of ice-cold lysis buffer (50 mM Tris-HCl, 0.25M NaCl, 0.1% (v/v) Triton X-100, 1 mM EDTA, 50 mM NaF, and 0.1 mM Na3VO4, pH 7.4) containing protease and phosphatase inhibitors (Roche Molecular Biochemicals) and analyzed by Western blot.
# Protein concentrations obtained from FNAB samples were quantified before each experiment. Protein extracts (15 μg) were electrophoresed on a 10% (w/v) SDS-polyacrylamide gel. After electrotransfer to Immobilon-P membranes (Millipore), membranes were blocked at room temperature using SuperBlock (Pierce) for one hour. The primary antibodies were diluted at 1:1000 in 1:10 dilution of SuperBlock solution and the membranes were incubated with primary antibodies overnight at 4° C. The antibodies tested were phospho-ERK1/2 (Cell signal #9101), phospho-S6 Ribosomal Protein (Cell Signaling Technology, Beverly, Mass.) and total ERK1/2 (Cell Signaling Technology, Beverly, Mass.) and total S6 Ribosomal Protein (Cell Signaling Technology, Beverly, Mass.). The next day, the membranes were washed and incubated for 1 h at room temperature with horseradish peroxidase (HRP)-conjugated secondary antibodies, rabbit IgG-HRP (Santa Cruz Biotechnology), or mouse IgG-HRP (Santa Cruz Biotechnology) at a final dilution of 1:3000. Antibody binding was visualized using enhanced chemiluminescence (SuperSignal West Pico, Pierce) and autoradiography.
# To test if tumor cells obtained by FNAB can be used in the ex vivo assays to predict tumor response in vivo, 25,000 viable cancer cells, as determined by trypan blue dye exclusion, were treated with erlotinib or temsirolimus for six hours, after which signal pathway inhibition was analyzed by Western blot. Under these cell culture conditions no fibroblast and endothelial cell growth was detected (data not shown).
# To determine whether standard clinical FNAB specimens provide adequately cellular tumor samples to perform ex vivo prediction assays, adenocarcinoma cells were collected by ultrasound or computer tomography-guided FNAB technique from pancreatic cancer patients during routine diagnostic procedures. Tumor cells were isolated by centrifugation from the needle rinse suspensions and treated with vehicle (control), erlotinib, or temsirolimus ex vivo for six hours.
smiles,measurement,setting,value
O=C(NOCC1CC1)c1ccc(F)c(F)c1Nc1ccc(I)cc1Cl [CI-1040],phosphorylation levels of ERK1/2 by phospho-ERK1/2 ELISA (raw data),[1]; HuCCT-1 tumor FNAB samples of treated animals,neither gefitinib nor CI-1040 treatment alone caused any significant change
same,decrease of ERK1/2 phosphorylation (normalized for total ERK1/2),"[1]; HuCCT-1 tumor FNAB, CI-1040 alone",19%
same,ERK1/2 activity (phospho-ERK1/2 immunoblot),"[2]; HuCCT-1 tumor FNAB samples of treated mice, gefitinib, CI-1040 alone or combined",only a slight inhibition in ERK1/2 activity
same,"ERK1/2 activity, serial FNAB sampling","[2]; combination: as early as 6 h after first administration, sustained for two weeks, single agents: 6 h or 5 d",neither of these agents alone caused inhibition
same,decrease in tumor volume,[3],11%
COc1cccc(-c2cc(=O)c3ccccc3o2)c1N [PD98059],inhibition of EGF-induced ERK1/2 phosphorylation (phospho-ELISA normalized for total ERK1/2),[4],50% and 60%
C#Cc1cccc(Nc2ncnc3cc(OCCOC)c(OCCOC)cc23)c1 [erlotinib],RTG,"[5]; remaining seven tumors (all but A198), erlotinib 50 mg/kg/day i.p., day 28",greater than 50%
same,tumor response,[5]; tumor A198,"sensitive (Tumor response was defined as sensitive, when RTG was less than 50% on day 28)"
same,tumor response,[5]; tumor A265,resistant (greater than 50% RTG and were defined as resistant)
same,ERK1/2 activation ex vivo,"[6]; all resistant tumors of the xenograft panel, erlotinib 5 μM, 6 hours",failed to inhibit ERK1/2 activation
same,ERK1/2 phosphorylation ex vivo,"[6]; cancer cells from pancreatic cancer patient 1, six hours",dramatically blocked ERK1/2 phosphorylation
same,phosphorylation of ERK1/2 ex vivo,"[6]; cells from resistant tumor A265, erlotinib 5 μM, 6 hours",failed to inhibit ERK1/2 phosphorylation
same,phosphorylation of ERK1/2 ex vivo,"[6]; cells from tumor A198, erlotinib 5 μM, 6 hours",dramatic inhibition; also recorded: did show inhibition of ERK1/2; also recorded: inhibited ERK1/2 activation
same,ERK1/2 activity ex vivo,"[6]; tumor cells of pancreatic cancer patient 2 and 3, six hours",did not effectively block ERK1/2 activity
